In paper PMC11173529, “Structure–Activity Relationship Studies in a Series of Xanthine Inhibitors of SLACK Potassium Channels” (Molecules, 2024):
pIC50: −log10 of the molar value.

Molecular target: T1, WT hSLACK (Homo sapiens, UniProt Q5JUK3)
T1 construct: host or cells: CHO-K1
T1 sequence (Q5JUK3 1-1235 isoform Q5JUK3-3): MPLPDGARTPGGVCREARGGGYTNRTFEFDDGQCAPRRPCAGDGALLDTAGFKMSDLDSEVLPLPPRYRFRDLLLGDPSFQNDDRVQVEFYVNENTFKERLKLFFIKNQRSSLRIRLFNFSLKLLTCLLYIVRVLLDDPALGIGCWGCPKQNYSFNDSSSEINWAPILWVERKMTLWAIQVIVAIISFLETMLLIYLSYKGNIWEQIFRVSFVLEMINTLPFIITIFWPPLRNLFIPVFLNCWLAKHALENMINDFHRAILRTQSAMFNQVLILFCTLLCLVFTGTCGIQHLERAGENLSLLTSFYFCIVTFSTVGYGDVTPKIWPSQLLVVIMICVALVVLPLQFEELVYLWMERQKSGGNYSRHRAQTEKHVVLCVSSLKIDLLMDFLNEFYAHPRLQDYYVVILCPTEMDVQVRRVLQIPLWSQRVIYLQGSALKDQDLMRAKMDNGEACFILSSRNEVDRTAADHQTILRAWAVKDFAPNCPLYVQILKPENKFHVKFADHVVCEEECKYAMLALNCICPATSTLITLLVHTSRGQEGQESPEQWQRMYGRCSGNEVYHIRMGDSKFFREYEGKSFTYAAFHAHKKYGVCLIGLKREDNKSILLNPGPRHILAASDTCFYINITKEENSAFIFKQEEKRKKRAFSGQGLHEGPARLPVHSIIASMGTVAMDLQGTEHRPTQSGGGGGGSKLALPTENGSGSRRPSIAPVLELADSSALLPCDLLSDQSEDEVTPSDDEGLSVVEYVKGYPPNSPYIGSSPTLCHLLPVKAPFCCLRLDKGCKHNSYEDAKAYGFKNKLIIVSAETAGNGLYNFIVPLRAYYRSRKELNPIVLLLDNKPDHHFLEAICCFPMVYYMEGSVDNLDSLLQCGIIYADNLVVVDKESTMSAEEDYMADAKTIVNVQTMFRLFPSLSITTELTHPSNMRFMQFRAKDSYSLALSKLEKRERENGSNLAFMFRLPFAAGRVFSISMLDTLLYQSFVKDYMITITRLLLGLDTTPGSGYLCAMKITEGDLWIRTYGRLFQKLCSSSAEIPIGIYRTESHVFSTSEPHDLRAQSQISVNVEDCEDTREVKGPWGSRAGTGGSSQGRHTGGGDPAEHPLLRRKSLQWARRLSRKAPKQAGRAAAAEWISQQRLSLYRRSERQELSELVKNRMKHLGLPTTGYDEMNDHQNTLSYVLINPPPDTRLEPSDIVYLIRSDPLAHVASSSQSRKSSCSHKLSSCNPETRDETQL
Assay: Whole-cell automated patch-clamp (APC) in CHO cells stably expressing WT hSLACK
Type: cell-based
Details: for SLACK Imax: maximum inhibition at 30 µM test compound standardized to VU0606170 (set at 100%), WT hSLACK; for pIC50: whole-cell APC, CHO cells stably expressing WT hSLACK, averages n ≥ 3, read-out: SLACK IC50
Procedure: All new analogs were tested in our APC assay using CHO cells stably expressing WT SLACK using a concentration-response format with concentrations ranging from 0.125 to 30 μM in half-log steps and a minimum of three cells (replicates) per concentration series. […] Still, there were some notable results. For example, substitution at the 4-position was largely unfavorable regardless of the nature of the substituent (21, 24, 27, 30, and 33) apart from the 4-fluoro analog 18. […] As the trifluoromethyl group is similar in electronegativity to chlorine, but larger than both methyl and chlorine, perhaps the steric bulk of the trifluoromethyl is to blame for the poor potency of these analogs. With the exception of the fluoro (16–18) and cyano (28–30) analogs, substitution at the 3-position was favorable for SLACK activity, with 3-methoxy analog 32 standing out in this set.
Stably transfected monoclonal HEK293 cell lines expressing Slick, Maxi-K α1/β3, Maxi-K α1/β4, CaV3.2, GIRK 1/2, KV2.1, KV7.2, NaV1.7, and TASK-1 were generated as previously described. Stably transfected monoclonal HEK293 cell lines expressing hERG were generated as previously described. CHO-K1 cells expressing human Slack and disease-associated human Slack mutations, G288S and A934T, were generated by transfecting a PiggyBac TRE mammalian expression vector (VectorBuilder, Chicago, IL, USA) containing KCNT1. FuGENE 6 (Promega, Madison, WI, USA) transfection reagent and protocol, together with Opti-MEM (Thermo Fisher Scientific, Walkham, MA, USA), were utilized.
Automated patch-clamp recording was performed with a SyncroPatch 768 PE system (Nanion, Munich, Germany) as previously described. Whole-cell recordings were performed at room temperature. Cells were harvested by first washing with PBS without Mg^2+ or Ca^2+ (Gibco, Billings, MT, USA) to remove cell culture media, followed by dissociation with TryPLE (Gibco, Billings, MT, USA). Cells were then resuspended and diluted to 100,000 cells/mL in external solution. External solution contained 105 mM NaCl, 4 mM KCl, 1 mM MgCl2, 5 mM CaCl2, 10 mM HEPES, and 40 mM N-Methyl-D-glucamine chloride, titrated to pH of 7.4 and osmolarity of 300 mOsm/kg; internal solution contained 70 mM NaCl, 70 mM KF, 10 mM KCl, 5 mM EGTA, and 5 mM HEPES, titrated to a pH of 7.2 and osmolarity of 295 mOsm/kg.
The APC protocol was set as follows: Cells were held at a […] of −80 mV for 100 ms, then a ramp protocol was performed from −100 mV to 80 mV at 0.4 mV/ms, followed by holding the cell at −80 mV for another 100 ms, then steps were performed at −20 mV, 0 mV, +20 mV, +40 mV, and +60 mV for 100 ms of each step. Whole-cell currents were measured at 0 mV and normalized to current after external buffer addition. […] To obtain the concentration-response relationship graphs and IC50 values, we take the median value of the last 7 current amplitude values obtained for each set of data points collected for a given concentration at a particular step.

SMILES: CN(Cc1ccccc1C(F)(F)F)c1nc2c(c(=O)n(Cc3ccccc3)c(=O)n2C)n1C [Analog 56]
- SLACK Imax: 100%
- pIC50: 5.72

SMILES: CCCN(Cc1ccccc1)c1nc2c(c(=O)n(Cc3ccccc3)c(=O)n2C)n1C [Analog 68]
- SLACK Imax: 100%
- pIC50: 5.89

SMILES: CCN(Cc1ccccc1)c1nc2c(c(=O)n(Cc3ccccc3)c(=O)n2C)n1C [Analog 67]
- SLACK Imax: 100%
- pIC50: 5.85

SMILES: Cc1ccccc1Cn1c(=O)c2c(nc(N(C)Cc3ccccc3)n2C)n(C)c1=O [Analog 22]
- SLACK Imax: 100%
- pIC50: 5.80

SMILES: CN(Cc1ccccc1)c1nc2c(c(=O)n(Cc3cccc(F)c3)c(=O)n2C)n1C [Analog 17]
- SLACK Imax: 100%
- pIC50: 5.80

SMILES: CN(Cc1ccccc1)c1nc2c(c(=O)n(Cc3ccc(F)cc3)c(=O)n2C)n1C [Analog 18]
- SLACK Imax: 100%
- pIC50: 5.89

SMILES: Cn1c(N2CCc3ccccc3C2)nc2c1c(=O)n(Cc1ccccc1)c(=O)n2C [Analog 75]
- SLACK Imax: 100%
- pIC50: 5.55

SMILES: Cn1c(CCc2ccccc2)nc2c1c(=O)n(Cc1ccccc1)c(=O)n2C [Analog 77]
- SLACK Imax: 103%
- pIC50: 5.15

SMILES: CN(Cc1ccccc1)c1nc2c(c(=O)n(Cc3ccccc3)c(=O)n2C)n1CC1CC1 [Analog 43]
- SLACK Imax: 55%
- pIC50: < 5.00

SMILES: Cc1ccccc1CN(C)c1nc2c(c(=O)n(Cc3ccccc3)c(=O)n2C)n1C [Analog 53]
- SLACK Imax: 100%
- pIC50: 5.00

SMILES: CN(Cc1ccccc1)c1nc2c(c(=O)n(Cc3ccccc3C#N)c(=O)n2C)n1C [Analog 28]
- SLACK Imax: 99%
- pIC50: 5.60

SMILES: CN(Cc1ccccc1)c1nc2c(c(=O)n(Cc3ccc(C#N)cc3)c(=O)n2C)n1C [Analog 30]
- SLACK Imax: 100%
- pIC50: 5.62

SMILES: CCn1c(N(C)Cc2ccccc2)nc2c1c(=O)n(Cc1ccccc1)c(=O)n2C [Analog 41]
- SLACK Imax: 87%
- pIC50: < 5.00

SMILES: CCCn1c(N(C)Cc2ccccc2)nc2c1c(=O)n(Cc1ccccc1)c(=O)n2C [Analog 42]
- SLACK Imax: 94%
- pIC50: < 5.00

SMILES: Cc1cccc(Cn2c(=O)c3c(nc(N(C)Cc4ccccc4)n3C)n(C)c2=O)c1 [Analog 23]
- SLACK Imax: 100%
- pIC50: 5.82

SMILES: CN(Cc1ccc(Cl)cc1)c1nc2c(c(=O)n(Cc3ccccc3)c(=O)n2C)n1C [Analog 52]
- SLACK Imax: 100%
- pIC50: 5.64

SMILES: CN(Cc1ccccc1)c1nc2c(c(=O)n(Cc3ccc(Cl)cc3)c(=O)n2C)n1C [Analog 21]
- SLACK Imax: 100%
- pIC50: 5.59

SMILES: COc1cccc(CN(C)c2nc3c(c(=O)n(Cc4ccccc4)c(=O)n3C)n2C)c1 [Analog 60]
- SLACK Imax: 100%
- pIC50: 5.57

SMILES: CN(Cc1ccc(C(F)(F)F)cc1)c1nc2c(c(=O)n(Cc3ccccc3)c(=O)n2C)n1C [Analog 58]
- SLACK Imax: 100%
- pIC50: 5.72

SMILES: CC(C)N(Cc1ccccc1)c1nc2c(c(=O)n(Cc3ccccc3)c(=O)n2C)n1C [Analog 69]
- SLACK Imax: 100%
- pIC50: 5.47

SMILES: Cc1ccc(Cn2c(=O)c3c(nc(N(C)Cc4ccccc4)n3C)n(C)c2=O)cc1 [Analog 24]
- SLACK Imax: 102%
- pIC50: 5.26

SMILES: Cc1cccc(CN(C)c2nc3c(c(=O)n(Cc4ccccc4)c(=O)n3C)n2C)c1 [Analog 54]
- SLACK Imax: 100%
- pIC50: 5.70

SMILES: C[C@@H](c1ccccc1)N(C)c1nc2c(c(=O)n(Cc3ccccc3)c(=O)n2C)n1C [Analog 66]
- SLACK Imax: 50%
- pIC50: < 5.00

SMILES: CN(Cc1ccccn1)c1nc2c(c(=O)n(Cc3ccccc3)c(=O)n2C)n1C [Analog 62]
- SLACK Imax: 107%
- pIC50: < 5.00

SMILES: COc1ccc(CN(C)c2nc3c(c(=O)n(Cc4ccccc4)c(=O)n3C)n2C)cc1 [Analog 61]
- SLACK Imax: 100%
- pIC50: 5.62

SMILES: Cn1c(N2Cc3ccccc3C2)nc2c1c(=O)n(Cc1ccccc1)c(=O)n2C [Analog 74]
- SLACK activity (in words) (APC, WT SLACK): inactive

SMILES: Cn1c(N(Cc2ccccc2)Cc2ccccc2)nc2c1c(=O)n(Cc1ccccc1)c(=O)n2C [Analog 72]
- SLACK Imax: 100%
- pIC50: 5.85

SMILES: CN(Cc1ccccc1Cl)c1nc2c(c(=O)n(Cc3ccccc3)c(=O)n2C)n1C [Analog 50]
- SLACK Imax: 100%
- pIC50: 5.52

SMILES: CN(Cc1ccccc1)c1nc2c(c(=O)n(Cc3cccc(Cl)c3)c(=O)n2C)n1C [Analog 20]
- SLACK Imax: 100%
- pIC50: 5.72

SMILES: CN(Cc1ccccc1)c1nc2c(c(=O)n(Cc3cccc(C(F)(F)F)c3)c(=O)n2C)n1C [Analog 26]
- SLACK Imax: 100%
- pIC50: 5.38

SMILES: C[C@H](c1ccccc1)N(C)c1nc2c(c(=O)n(Cc3ccccc3)c(=O)n2C)n1C [Analog 65]
- SLACK Imax: 100%
- pIC50: 5.80

SMILES: COc1ccccc1CN(C)c1nc2c(c(=O)n(Cc3ccccc3)c(=O)n2C)n1C [Analog 59]
- SLACK Imax: 101%
- pIC50: 5.33

SMILES: CN(Cc1ccccc1)c1nc2c(c(=O)n(Cc3ccccc3Cl)c(=O)n2C)n1C [Analog 19]
- SLACK Imax: 89%
- pIC50: 5.70

SMILES: CN(Cc1ccccc1)c1nc2c(c(=O)n(Cc3cccc(C#N)c3)c(=O)n2C)n1C [Analog 29]
- SLACK Imax: 100%
- pIC50: 5.62

SMILES: COc1ccccc1Cn1c(=O)c2c(nc(N(C)Cc3ccccc3)n2C)n(C)c1=O [Analog 31]
- SLACK Imax: 100%
- pIC50: 5.89

SMILES: Cn1c(NCc2ccccc2)nc2c1c(=O)n(Cc1ccccc1)c(=O)n2C [Analog 46a]
- SLACK Imax: 88%
- pIC50: 5.22

SMILES: CN(Cc1ccc(F)cc1)c1nc2c(c(=O)n(Cc3ccccc3)c(=O)n2C)n1C [Analog 49]
- SLACK Imax: 100%
- pIC50: 5.80

SMILES: CN(Cc1ccccc1)c1nc2c(c(=O)n(Cc3ccccc3)c(=O)n2C)n1C [Analog 8]
- SLACK Imax: 100%
- pIC50: 5.77

SMILES: COc1ccc(Cn2c(=O)c3c(nc(N(C)Cc4ccccc4)n3C)n(C)c2=O)cc1 [Analog 33]
- SLACK Imax: 78%
- pIC50: < 5.00

SMILES: CN(Cc1ccccc1)c1nc2c(c(=O)n(Cc3ccccc3C(F)(F)F)c(=O)n2C)n1C [Analog 25]
- SLACK Imax: 70%
- pIC50: < 5.00
